Values of other authors in patent US20010046957A1, “Method for treating hepatitis C” (priority 1999, published 2001).

Experiments:
HCV [1] = test system: HCV
yellow fever virus = conditions: (Neyts J)
HCV [2] = conditions: patients with CHC virus infection following liver transplant, after initiation of MMF therapy for rejection; anecdotal report (Platz KP)
[3] = patients treated at currently recommended doses
[4] = in vivo

**Q.** With IFN-α as the compound, how does the sustained response (HCV [1]; IFN-α monotherapy, general CHC populations (Fried M)) read?
**A.** 5-20%

**Q.** For COc1c(C)c2c(c(O)c1C/C=C(\C)CCC(=O)OCCN1CCOCC1)C(=O)OC2 [MMF, mycophenolate mofetil], which antiviral activity (yellow fever virus) is on record?
**A.** antiviral activity

**Q.** What about the “serum HCV RNA levels” value (HCV [2]) of the same compound?
**A.** decrease in some patients

**Q.** For NC(=O)c1ncn([C@@H]2O[C@H](CO)[C@@H](O)[C@H]2O)n1 [Ribavirin, 1-β-D-ribofuranosyl-1 H-1 ,2,-4-triazole-3-carboxamide], which “significant hemolysis, patients affected” value [3] is on record?
**A.** 10-20%

**Q.** And the “improvement of sustained virological response rates over IFN-α monotherapy” value (HCV [1]; ribavirin combined with IFNα, CHC (Lai MY; Reichard O))?
**A.** approximately 2 fold

**Q.** What about the “end of treatment virological response” value (HCV [1]; ribavirin combined with a pegylated form of IFN-α2A, small pilot study of safety (Sulkowski M.)) of the same compound?
**A.** 70%

**Q.** And the “sustained loss of detectable virus” value (HCV [1]; ribavirin plus IFNα regimen, treated patients (McHutchison JG))?
**A.** 30 - 40%

**Q.** Which bioavailability [4] does the source give for Mycophenolic acid [MPA] here?
**A.** limited
